Measured values from the supplement of paper PMC11061612.

Assays:
Assay in all cases: combination Emax (second highest fraction inhibited in the dose matrix, 72 h); higher = more inhibition; extreme values may be limits of the assay
[1] = test system: KARPAS-1106P (B-Cell Non-Hodgkin's Lymphoma)
Summary of the method: (§1)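 After 24 hours at 37°C and 5% CO2 in 1536-well plates, cells in DMEM/F12 or RPMI plus 10% FBS received two-drug dose matrices for 72 hours. Viability came from CellTiter-Glo 2.0 luminescence and was scaled as inhibition, anchored at 0 by vehicle wells and at 1 by blank wells. Combination Emax is taken as the second-highest inhibition in the matrix, and Bliss excess as the observed combination effect less EA + EB − EA·EB, with EA and EB the single-agent effects.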

[2] = test system: LS-513 (Colorectal Carcinoma)
Summary of the method: as §1

[3] = test system: G-292-Clone-A141B1 (Osteosarcoma)
Summary of the method: as §1

[4] = test system: CFPAC-1 (Pancreatic Carcinoma)
Summary of the method: as §1

[5] = test system: KARPAS-620 (Plasma Cell Myeloma)
Summary of the method: as §1

[6] = test system: NCI-H1793 (Lung Adenocarcinoma)
Summary of the method: as §1

[7] = test system: SUIT-2 (Pancreatic Carcinoma)
Summary of the method: as §1

[8] = test system: HCC2157 (Breast Carcinoma)
Summary of the method: as §1

[9] = test system: RH-1 (Ewing's Sarcoma)
Summary of the method: as §1

[10] = test system: TGBC24TKB (Biliary Tract Carcinoma)
Summary of the method: as §1

[11] = test system: NCI-H2369 (Mesothelioma)
Summary of the method: as §1

[12] = test system: IHH-4 (Thyroid Gland Carcinoma)
Summary of the method: as §1

[13] = test system: 697 (B-Lymphoblastic Leukemia)
Summary of the method: as §1

[14] = test system: ES7 (Ewing's Sarcoma)
Summary of the method: as §1

[15] = test system: SN12C (Kidney Carcinoma)
Summary of the method: as §1

[16] = test system: SW1088 (Low Grade Glioma)
Summary of the method: as §1

[17] = test system: SW780 (Bladder Carcinoma)
Summary of the method: as §1

[18] = test system: LU-99A (Non-Small Cell Lung Carcinoma)
Summary of the method: as §1

[19] = test system: DOV13 (Ovarian Carcinoma)
Summary of the method: as §1

[20] = test system: IGR-1 (Melanoma)
Summary of the method: as §1

SMILES | combination Emax [1] | combination Emax [2] | combination Emax [3] | combination Emax [4] | combination Emax [5] | combination Emax [6] | combination Emax [7] | combination Emax [8] | combination Emax [9] | combination Emax [10] | combination Emax [11] | combination Emax [12] | combination Emax [13] | combination Emax [14] | combination Emax [15] | combination Emax [16] | combination Emax [17] | combination Emax [18] | combination Emax [19] | combination Emax [20]
CC(=O)c1c(C)c2cnc(Nc3ccc(N4CCNCC4)cn3)nc2n(C2CCCC2)c1=O [Palbociclib] + Cc1c2c(nn1C)CSCc1cc(n(C)n1)CSc1cc(c3ccccc3c1)OCCCc1c(C(=O)O)n(C)c3c-2c(Cl)ccc13 [AZD5991] (first compound max 10 µM, 7x7, partner max 1 µM) | 0.897 | 0.658 | 0.161 | 0.375 | 1 | 0.212 | 0.445 | 1 | 0.853 | 0.585 | 0.199 | 0.411 | 1 | 0.714 | 0.166 | 0.364 | 0.223 | 0.346 | 0.752 | 0.818
COc1nnc2ccc(N3CCC(c4ccc(OCCN5CCN(C)C(=O)[C@H]5C)cc4)CC3)nn12 [AZD5153] + Cc1c2c(nn1C)CSCc1cc(n(C)n1)CSc1cc(c3ccccc3c1)OCCCc1c(C(=O)O)n(C)c3c-2c(Cl)ccc13 [AZD5991] (first compound max 1 µM, 7x7, partner max 1 µM) | 1 | 0.644 | 0.387 | 0.419 | 1 | 0.288 | 0.462 | 1 | 0.937 | 0.848 | 0.337 | 0.544 | 1 | 0.928 | 0.309 | 0.487 | 0.365 | 0.807 | 0.487 | 0.752
NC1(C(=O)N[C@@H](CCO)c2ccc(Cl)cc2)CCN(c2ncnc3[nH]ccc23)CC1 [Capivasertib] + CC(=O)c1c(C)c2cnc(Nc3ccc(N4CCNCC4)cn3)nc2n(C2CCCC2)c1=O [Palbociclib] (first compound max 10 µM, 7x7, partner max 10 µM) | 0.761 | 0.675 | 0.333 | 0.519 | 0.781 | 0.361 | 0.552 | 1 | 0.391 | 0.556 | 0.259 | 0.618 | 0.838 | 0.655 | 0.17 | 0.654 | 0.248 | 0.502 | 0.588 | 0.831
C=CCn1c(=O)c2cnc(Nc3ccc(N4CCN(C)CC4)cc3)nc2n1-c1cccc(C(C)(C)O)n1 [AZD1775] + C[C@@H]1COCCN1C2=NC(=NC(=C2)C3(CC3)[S@](=N)(=O)C)C4=C5C=CNC5=NC=C4 [AZD6738] (first compound max 1 µM, partner max 10 µM) | 0.886 | 0.87 | 0.354 | 0.536 | 0.753 | 0.548 | 0.728 | 0.983 | 1 | 0.832 | 0.336 | 0.886 | 1 | 0.903 | 0.408 | 0.684 | 0.246 | 0.694 | 0.928 | 0.538
COc1nnc2ccc(N3CCC(c4ccc(OCCN5CCN(C)C(=O)[C@H]5C)cc4)CC3)nn12 [AZD5153] + C=CCn1c(=O)c2cnc(Nc3ccc(N4CCN(C)CC4)cc3)nc2n1-c1cccc(C(C)(C)O)n1 [AZD1775] (first compound max 1 µM, partner max 1 µM) | 0.884 | 0.728 | 0.402 | 0.506 | 0.764 | 0.358 | 0.693 | 1 | 0.997 | 0.826 | 0.461 | 0.662 | 1 | 0.795 | 0.165 | 0.513 | 0.429 | 0.595 | 0.826 | 0.623
Cc1cc2ncnn2cc1Nc1ncc2c(n1)n(C1CCOCC1)c(=O)n2C [AZD7648] + C[C@@H]1COCCN1C2=NC(=NC(=C2)C3(CC3)[S@](=N)(=O)C)C4=C5C=CNC5=NC=C4 [AZD6738] (first compound max 10 µM, 7x7, partner max 10 µM) | 0.756 | 0.762 | 0.334 | 0.356 | 0.539 | 0.36 | 0.611 | 0.842 | 0.894 | 0.786 | 0.25 | 0.756 | 1 | 0.766 | 0.313 | 0.671 | 0.303 | 0.681 | 0.838 | 0.348
CN(CCO)CC[C@H](CSc1ccccc1)Nc1ccc(S(=O)(=O)NC(=O)c2ccc(N3CCC([C@@H](O)c4ccccc4-c4ccc(Cl)cc4)CC3)cc2)cc1S(=O)(=O)C(F)(F)F [AZD4320] + C[C@@H](Nc1cc(F)cc(F)c1)c1cc(C(=O)N(C)C)cc2c(=O)cc(N3CCOCC3)oc12 [AZD8186] (first compound max 1 µM, 7x7, partner max 3 µM) | 0.951 | 0.708 | 0.799 | 0.424 | 1 | 0.342 | 0.245 | 0.978 | 0.885 | 0.544 | 0.375 | 0.516 | 1 | 0.991 | 0.331 | 0.515 | 0.742 | 0.765 | 0.916 | 0.901
CN(CCO)CC[C@H](CSc1ccccc1)Nc1ccc(S(=O)(=O)NC(=O)c2ccc(N3CCC([C@@H](O)c4ccccc4-c4ccc(Cl)cc4)CC3)cc2)cc1S(=O)(=O)C(F)(F)F [AZD4320] + CCN(CCO)CCCOc1ccc2c(Nc3cc(CC(=O)Nc4cccc(F)c4)[nH]n3)ncnc2c1 [AZD2811] (first compound max 1 µM, 7x7, partner max 1 µM) | 0.215 | 0.414 | 0.578 | 0.115 | 1 | 0.283 | 0.089 | 0.979 | 0.913 | 0.822 | 0.378 | 0.282 | 1 | 1 | 0.169 | 0.306 | 0.803 | 0.701 | 0.908 | 0.926
CN(CCO)CC[C@H](CSc1ccccc1)Nc1ccc(S(=O)(=O)NC(=O)c2ccc(N3CCC([C@@H](O)c4ccccc4-c4ccc(Cl)cc4)CC3)cc2)cc1S(=O)(=O)C(F)(F)F [AZD4320] + C[C@@H]1COCCN1C2=NC(=NC(=C2)C3(CC3)[S@](=N)(=O)C)C4=C5C=CNC5=NC=C4 [AZD6738] (first compound max 1 µM, 7x7, partner max 10 µM) | 0.849 | 0.821 | 0.754 | 0.724 | 1 | 0.498 | 0.522 | 0.979 | 0.963 | 0.891 | 0.324 | 0.769 | 1 | 1 | 0.328 | 0.586 | 0.506 | 0.838 | 0.974 | 0.969
CN(C)CCCOc1ccc(-c2ccc3ncc4c(c3c2)n(C2CCOCC2)c(=O)n4C)cn1 [AZD0156] + C[C@@H]1COCCN1C2=NC(=NC(=C2)C3(CC3)[S@](=N)(=O)C)C4=C5C=CNC5=NC=C4 [AZD6738] (first compound max 1 µM, 7x7, partner max 10 µM) | 0.752 | 0.822 | 0.263 | 0.434 | 0.644 | 0.455 | 0.71 | 0.955 | 0.938 | 0.796 | 0.187 | 0.907 | 1 | 0.846 | 0.114 | 0.57 | 0.138 | 0.784 | 0.888 | 0.523
